Experimental data taken from patent publication US11491120B2, “Pharmacological prophylactics against stress-induced affective disorders in females” (The Trustees of Columbia University in the City of New York, priority 2017, dated 2022).
Entries after “also recorded” stand apart in the source; their conditions may differ.

System: female 129S6/SvEv mice
Assay: Contextual fear conditioning (CFC), 3-shock, freezing in training and context re-exposure
Conditions: for p, Sal vs. drug, Dunnett test: Freezing (Average), Contextual Fear Conditioning Re-exposure / p, Freezing (min 1-5) / p, Freezing (min 2) / p, Freezing (min 3) / p, Freezing (min 4) / p, Freezing (min 5): 1 week prophylactic drug
[1] = 0.025 mg/kg, 24 hours before CFC, female mice
[2] = Contextual Fear Conditioning Re-exposure, Dunnett test Sal vs. drug (0.025)
[3] = Contextual Fear Conditioning Re-exposure, Dunnett test Sal vs. drug (0.075)
[4] = Contextual Fear Conditioning Re-exposure, Dunnett test Sal vs. drug (0.1)
[5] = Contextual Fear Conditioning Re-exposure, Dunnett test Sal vs. drug (0.3)
[6] = Contextual Fear Conditioning Re-exposure, Dunnett test Sal vs. drug (2.5)
[7] = Contextual Fear Conditioning Re-exposure, Dunnett test Sal vs. drug (10)
[8] = Contextual Fear Conditioning Training, Dunnett test Sal vs. drug (0.025)
[9] = Contextual Fear Conditioning Training, Dunnett test Sal vs. drug (0.075)
[10] = Contextual Fear Conditioning Training, Dunnett test Sal vs. drug (0.1)
[11] = Contextual Fear Conditioning Training, Dunnett test Sal vs. drug (0.3)
[12] = Contextual Fear Conditioning Training, Dunnett test Sal vs. drug (2.5)

SMILES: N[C@@]1(c2ccccc2Cl)CCC[C@@H](O)C1=O [(2R,6R)-HNK, (2R,6R)-hydroxynorketamine]
- p, Sal vs. drug, Dunnett test: Freezing (Average), Contextual Fear Conditioning Re-exposure (0.025 mg/kg): 0.4341
- Freezing / fear expression during re-exposure vs saline [1]: comparable levels of freezing
- Freezing / fear learning during CFC training vs saline [1]: comparable levels of freezing; also recorded: did not alter fear learning
- p, Sal vs. drug, Dunnett test: Freezing (Average), Contextual Fear Conditioning Re-exposure (0.075 mg/kg): 0.9955
- p, Sal vs. drug, Dunnett test: Freezing (Average), Contextual Fear Conditioning Re-exposure (0.1 mg/kg): 0.9257
- p, Sal vs. drug, Dunnett test: Freezing (Average), Contextual Fear Conditioning Re-exposure (0.3 mg/kg): 0.9993
- p, Sal vs. drug, Dunnett test: Freezing (Average), Contextual Fear Conditioning Re-exposure (2.5 mg/kg): 0.6274
- Freezing during 3-shock CFC training vs saline (10 mg/kg, 1 week before CFC, female mice): significantly lowered freezing
- p, Sal vs. drug, Dunnett test: Freezing (Average), Contextual Fear Conditioning Re-exposure (10 mg/kg): 0.9991
- Freezing during context re-exposure vs saline (3 days before CFC, female mice): do not affect freezing during re-exposure
- p, Freezing (min 1-5) [2]: 0.4341
- p, Freezing (min 2) [2]: 0.1669
- p, Freezing (min 3) [2]: 0.8139
- p, Freezing (min 4) [2]: 0.6797
- p, Freezing (min 5) [2]: 0.7607
- p, Freezing (min 1-5) [3]: 0.9955
- p, Freezing (min 2) [3]: >0.9999
- p, Freezing (min 3) [3]: 0.9009
- p, Freezing (min 4) [3]: 0.9994
- p, Freezing (min 5) [3]: 0.9990
- p, Freezing (min 1-5) [4]: 0.9257
- p, Freezing (min 2) [4]: 0.9990
- p, Freezing (min 3) [4]: 0.9333
- p, Freezing (min 4) [4]: 0.9679
- p, Freezing (min 5) [4]: 0.8119
- p, Freezing (min 1-5) [5]: 0.9993
- p, Freezing (min 2) [5]: 0.9998
- p, Freezing (min 3) [5]: 0.9954
- p, Freezing (min 4) [5]: 0.9994
- p, Freezing (min 5) [5]: 0.9991
- p, Freezing (min 1-5) [6]: 0.6274
- p, Freezing (min 2) [6]: 0.2365
- p, Freezing (min 3) [6]: 0.4707
- p, Freezing (min 4) [6]: 0.3440
- p, Freezing (min 5) [6]: 0.9997
- p, Freezing (min 1-5) [7]: 0.9991
- p, Freezing (min 2) [7]: 0.9994
- p, Freezing (min 3) [7]: 0.9074
- p, Freezing (min 4) [7]: 0.9994
- p, Freezing (min 5) [7]: 0.9003
- p, Freezing (min 1-5) [8]: 0.7272
- p, Freezing (min 4) [8]: 0.9640
- p, Freezing (min 5) [8]: 0.9668
- p, Freezing (min 1-5) [9]: 0.9917
- p, Freezing (min 4) [9]: 0.9911
- p, Freezing (min 5) [9]: 0.9993
- p, Freezing (min 1-5) [10]: 0.6657
- p, Freezing (min 4) [10]: >0.9999
- p, Freezing (min 5) [10]: 0.2588
- p, Freezing (min 1-5) [11]: 0.9992
- p, Freezing (min 4) [11]: 0.9477
- p, Freezing (min 5) [11]: >0.9999
- p, Freezing (min 1-5) [12]: 0.9993
- p, Freezing (min 4) [12]: 0.9991
- p, Freezing (min 5) [12]: 0.9997
